Consider twelve molecules from US10800788B2, “4-(aryl)-N-(3-alkoxyfuro[2,3-b]pyrazin-2-yl)-piperazine-1-carboxamide derivative and antiproliferative effect thereof” (Dongguk University Industry-Academic Cooperation Foundation, priority 2016, dated 2020).

Experiment [1] relates to MDA-MB-231 (breast cancer) cell line. In words: Cell growth inhibition experiment (SRB), MDA-MB-231. In kind it is cell-based, human. The settings on record: Homo sapiens, MDA-MB-231, 96 h, 96 hours incubation. As to the method: (§1) The cell lines below were used in order to confirm the efficacy of the compounds synthesized in Examples 1 to 60. Human PANC-1 (pancreatic cancer) and MDA-MB-231 (breast cancer) cell lines were obtained from the American Type Culture Collection (ATCC; Manassas, Va.); and HN31 (head and neck cancer) and UMRC2 (kidney cancer) cell lines were secured from the United States National Institutes of Health (Bethesda, Md.). The MDA-MB-231, UMRC2, HN31, and PANC-1 cell lines were cultured in Dulbecco modified Eagle medium (DMEM; Invitrogen, Carlsbad, Calif.) containing FBS (10%), HEPES (10 mM), penicillin (100 U/mL), and streptomycin (100 μg/mL). All cell lines were cultured in an incubator (37° C., 5% CO2).
(§2) The 4-(aryl)-N-(3-alkoxyfuro[2,3-b]pyrazin-2-yl)-piperazine-1-carboxamide derivative compounds synthesized according to Examples 1 to 60 of the present invention were treated with various human tissue-derived cancer cell lines cultured according to Experimental Example 1, and thus the inhibitory effect of the growth of human cancer cells was confirmed. The cell growth inhibition experiment was conducted using the sulforhodamine B (SRB) technique (Skehan et al., J. National Cancer Institute, 1990, 82: 1107-1112). Specifically, each cell line was seeded in a 96-well plate at a density of 2 to 3×10^3 cells/well, cultured overnight, and then treated with the 4-(aryl)-N-(3-alkoxyfuro[2,3-b]pyrazin-2-yl)-piperazine-1-carboxamide derivative compounds of the present invention. The experiment was repeated 3 times for each compound. Cells treated with each compound were additionally incubated for 96 hours, fixed with 10% trichloroacetic acid (TCA), and then left at 4° C. for 1 hour. The resultant was washed 3 times with distilled water. Thereafter, each cell was treated with 0.4% sulforhodamine B dissolved in 1% acetic acid, stained for 30 minutes, and then washed 4 times with 1% acetic acid. The resultant was dried in the air. After shaking the resultant in Tris solution (10 mM) for 5 minutes, the absorbance was measured at 530 nm using a Benchmark Plus Microplate reader (Bio-Rad Laboratories, Hercules, Calif.).
(§3) In order to convert the OD530 value to the number of viable cells per each well, the measured OD530 value was compared to the standard OD530-vs.-cell number curve of each cell line. The percent survival was calculated using the following formula: % survival=Nlive cells(test)/Nlive cells(control)×100

Experiment [2] deals with UMRC2 (kidney cancer) cell line. In words: Cell growth inhibition experiment (SRB), UMRC2. The class given is cell-based, human. The settings on record: Homo sapiens, UMRC2, 96 h, 96 hours incubation. As to the method:
as §1, §2, §3

Experiment [3] has as its system PANC-1 (pancreatic cancer) cell line. As to the kind of experiment: Cell growth inhibition experiment (SRB), PANC-1. In kind it is cell-based. Particulars: Homo sapiens, PANC-1, 96 h, 96 hours incubation. On the procedure: as §1, §2, §3
Experiment [4] concerns HN31 (head and neck cancer) cell line. In words: Cell growth inhibition experiment (SRB), HN31. In kind it is cell-based, human. The settings on record: Homo sapiens, 96 h, 96 hours incubation. On the procedure: as §1, §2, §3
A further experiment concerns A549. As to the kind of experiment: Cell growth inhibition experiment (SRB), A549. In kind it is cell-based. The settings on record: Homo sapiens, A549, 96 h, 96 hours incubation, read-out: IC50 (μM) for cancer cell line A549. On the procedure: as §2, §3
For the next experiment, the system named is HEK293. In words: Cell growth inhibition experiment (SRB), HEK293. The class given is cell-based, human. The settings on record: Homo sapiens, HEK293, 96 h, 96 hours incubation, read-out: IC50 (μM) for cancer cell line HEK293. As to the method: as §2, §3
Another experiment concerns HUVEC. In words: Cell growth inhibition experiment (SRB), HUVEC. In kind it is cell-based, human. Particulars: Homo sapiens, HUVEC, 96 h, 96 hours incubation, read-out: IC50 (μM) […]. As to the method: as §2, §3
For another experiment, the system named is HT29. As to the kind of experiment: Cell growth inhibition experiment (SRB), HT29. The class given is cell-based, human. The settings on record: Homo sapiens, HT-29, 96 h, 96 hours incubation, read-out: IC50 (μM) for cancer cell line HT29. As to the method:
as §2, §3

For a further experiment, the system named is SK-OV-3. In words: Cell growth inhibition experiment (SRB), SK-OV-3. In kind it is cell-based, human. Particulars: Homo sapiens, SK-OV-3, 96 h, 96 hours incubation, read-out: IC50 (μM) for cancer cell line SK-OV-3. As to the method:
as §2, §3

The term IC50 denotes the midpoint of a concentration-inhibition curve. As to `COc1cc(OCCN(C)C)cc(N2CCN(C(=O)Nc3nc4ccoc4nc3OC)CC2)c1` [Example 4, 4-(3-(2-(Dimethylamino)ethoxy)-5-methoxyphenyl)-N-(3-methoxyfuro[2,3-b]pyrazin-2-yl)piperazine-1-carboxamide], the IC50 in experiment [1] was 1.13 µM; in [2] it was 0.54 µM; in experiment [3], 0.68 µM; in experiment [4], 1.54 µM; with A549, less than 2.5 µM; in the experiment on HEK293 it was less than 2.5 µM. Further, the IC50 in the experiment on HUVEC is 1.25 µM; in the experiment on HT29 it was less than 2.5 µM; with SK-OV-3, less than 2.5 µM.

In the case of `COc1cc(OC)cc(N2CCN(C(=O)Nc3nc4ccoc4nc3OC)CC2)c1` [Example 1, 4-(3,5-Dimethoxyphenyl)-N-(3-methoxyfuro[2,3-b]pyrazin-2-yl)piperazine-1-carboxamide], the IC50 was determined as 0.12 µM in experiment [1]; 0.03 µM in experiment [2]; 0.53 µM in [3]; 0.27 µM in experiment [4]; 1.13 µM with A549; 0.63 µM with HEK293. Also, the IC50 is 0.12 µM in the experiment with HUVEC, 0.31 µM in the experiment on HT29 and 0.27 µM with SK-OV-3.

In the case of `CCOc1nc2oc(C)cc2nc1NC(=O)N1CCN(c2cc(C(F)(F)F)cc(C(F)(F)F)c2)CC1` [Example 39, 4-(3,5-Bis(trifluoromethyl)phenyl)-N-(3-ethoxy-6-methylfuro[2,3-b]pyrazin-2-yl)piperazine-1-carboxamide], the IC50 (in [1]; in experiment [2]; in [3]; in experiment [4]; in the experiment on A549; with HEK293) was less than 2.5 µM each time. Besides, the IC50 in the experiment with HUVEC, in the experiment with HT29 and with SK-OV-3 was less than 2.5 µM in each case.

On to `COc1nc2oc(Cl)cc2nc1NC(=O)N1CCN(c2cc(C)cc(C)c2)CC1` [Example 45, N-(6-Chloro-3-methoxyfuro[2,3-b]pyrazin-2-yl)-4-(3,5-dimethylphenyl)piperazine-1-carboxamide], for which the 50% inhibitory concentration (IC50) in [1] was 0.69 µM; in experiment [2] it was 0.32 µM; in experiment [3], 0.68 µM; in experiment [4], 1.68 µM; in the experiment on A549, 1.81 µM; in the experiment on HEK293, 2.01 µM. Moreover, the IC50 in the experiment on HUVEC, with HT29 and in the experiment on SK-OV-3 was less than 2.5 µM throughout.

In the case of `CCOc1nc2oc(Cl)cc2nc1NC(=O)N1CCN(c2cc(C)cc(F)c2)CC1` [Example 56, N-(6-Chloro-3-ethoxyfuro[2,3-b]pyrazin-2-yl)-4-(3-fluoro-5-methylphenyl)piperazine-1-carboxamide], the IC50 in experiment [1] was 0.36 µM; in experiment [2], 0.87 µM; in [3], 1.68 µM; in experiment [4], 1.75 µM; in the experiment on A549 it was less than 2.5 µM; with HEK293, less than 2.5 µM. The IC50 in the experiment with HUVEC, with HT29 and in the experiment on SK-OV-3 was less than 2.5 µM each time.

In the case of `CCOc1nc2occc2nc1NC(=O)N1CCN(c2cc(C)cc(OC)c2)CC1` [Example 12, N-(3-Ethoxyfuro[2,3-b]pyrazin-2-yl)-4-(3-methoxy-5-methylphenyl)piperazine-1-carboxamide], the IC50 in [1] came to 0.05 µM; in experiment [2], 0.14 µM; in experiment [3], 0.24 µM; in experiment [4] it was 0.33 µM; in the experiment on A549 it was 1.28 µM; in the experiment with HEK293, 1.55 µM. Also, the IC50 in the experiment with HUVEC is 0.27 µM; in the experiment on HT29, 1.3 µM; in the experiment on SK-OV-3, 1.29 µM.

For `CCOc1nc2oc(C)cc2nc1NC(=O)N1CCN(c2cc(F)cc(F)c2)CC1` [Example 37, 4-(3,5-Difluorophenyl)-N-(3-ethoxy-6-methylfuro[2,3-b]pyrazin-2-yl)piperazine-1-carboxamide], the IC50 came out at 0.15 µM in [1]; 0.36 µM in [2]; 0.51 µM in experiment [3]; 0.68 µM in experiment [4]; 0.44 µM in the experiment on A549; 1.63 µM in the experiment with HEK293. Moreover, the IC50 in the experiment on HUVEC stood at 1.25 µM; in the experiment with HT29 it was 1.28 µM; with SK-OV-3 it was 2.13 µM.

Turning to `CCOc1nc2occc2nc1NC(=O)N1CCN(c2cccc(OC(F)(F)F)c2)CC1` [Example 20, N-(3-Ethoxyfuro[2,3-b]pyrazin-2-yl)-4-(3-(trifluoromethoxy)phenyl)piperazine-1-carboxamide], the IC50 turned out to be 0.25 µM in experiment [1]; 1.63 µM in experiment [2]; 0.36 µM in experiment [3]; 0.36 µM in experiment [4]; 0.24 µM in the experiment with A549; 0.12 µM in the experiment on HEK293. The IC50 in the experiment on HUVEC was 0.21 µM; in the experiment with HT29, 0.62 µM; in the experiment with SK-OV-3, 0.22 µM.

Consider `COc1nc2occc2nc1NC(=O)N1CCN(c2cc(C(F)(F)F)cc(C(F)(F)F)c2)CC1` [Example 9, 4-(3,5-Bis(trifluoromethyl)phenyl)-N-(3-methoxyfuro[2,3-b]pyrazin-2-yl)piperazine-1-carboxamide], for which the IC50 (in [1]; in experiment [2]; in experiment [3]; in [4]; with A549; with HEK293) was less than 2.5 µM each time. In addition, the IC50 in the experiment on HUVEC, with HT29 and with SK-OV-3 was less than 2.5 µM throughout.

`COc1nc2oc(C)cc2nc1NC(=O)N1CCN(c2cc(C(F)(F)F)cc(C(F)(F)F)c2)CC1` [Example 29, 4-(3,5-Bis(trifluoromethyl)phenyl)-N-(3-methoxy-6-methylfuro[2,3-b]pyrazin-2-yl)piperazine-1-carboxamide]: the IC50 (in experiment [1]; in experiment [2]; in experiment [3]; in experiment [4]; in the experiment on A549; with HEK293) was less than 2.5 µM each time. In addition, the IC50 with HUVEC, in the experiment on HT29 and with SK-OV-3 was less than 2.5 µM in each case.

On to `CCOc1nc2oc(Cl)cc2nc1NC(=O)N1CCN(c2cc(F)cc(C(F)(F)F)c2)CC1` [Example 58, N-(6-Chloro-3-ethoxyfuro[2,3-b]pyrazin-2-yl)-4-(3-fluoro-5-(trifluoromethyl)phenyl)piperazine-1-carboxamide], for which the IC50 (in experiment [1]; in experiment [2]; in experiment [3]; in [4]; in the experiment on A549; in the experiment with HEK293) was less than 2.5 µM in each case. Also, the IC50 with HUVEC, in the experiment with HT29 and in the experiment with SK-OV-3 was less than 2.5 µM in each case.

With `CCOc1nc2occc2nc1NC(=O)N1CCN(c2cc(F)cc(C(F)(F)F)c2)CC1` [Example 18, N-(3-Ethoxyfuro[2,3-b]pyrazin-2-yl)-4-(3-fluoro-5-(trifluoromethyl)phenyl)piperazine-1-carboxamide], the IC50 is 0.44 µM in experiment [1]; 0.24 µM in [2]; less than 2.5 µM in experiment [3]; less than 2.5 µM in [4]; less than 2.5 µM in the experiment on A549; less than 2.5 µM in the experiment with HEK293. In addition, the IC50 with HUVEC, with HT29 and in the experiment on SK-OV-3 was less than 2.5 µM in each case.
